Where two headings read alike, the source gives them in different places.
Tests used:
HCC1806 = assay: Cell viability assay (CellTiter-Glo); assay type: cell-based, Human; details: HCC1806, 7 days, CellTiter-Glo, read-out: IC50 (nM) in cell viability assay
PXR = target: T1, PXR (Homo sapiens, UniProt O75469); assay: PXR assay (DPX2 luciferase reporter cells); assay type: cell-based; details: 24 h; for PXR Activation @30 uM (% Ctrl): positive control rifampicin
T1 construct: host or cells: DPX2 (HepG2)
T1 sequence (O75469 1-434): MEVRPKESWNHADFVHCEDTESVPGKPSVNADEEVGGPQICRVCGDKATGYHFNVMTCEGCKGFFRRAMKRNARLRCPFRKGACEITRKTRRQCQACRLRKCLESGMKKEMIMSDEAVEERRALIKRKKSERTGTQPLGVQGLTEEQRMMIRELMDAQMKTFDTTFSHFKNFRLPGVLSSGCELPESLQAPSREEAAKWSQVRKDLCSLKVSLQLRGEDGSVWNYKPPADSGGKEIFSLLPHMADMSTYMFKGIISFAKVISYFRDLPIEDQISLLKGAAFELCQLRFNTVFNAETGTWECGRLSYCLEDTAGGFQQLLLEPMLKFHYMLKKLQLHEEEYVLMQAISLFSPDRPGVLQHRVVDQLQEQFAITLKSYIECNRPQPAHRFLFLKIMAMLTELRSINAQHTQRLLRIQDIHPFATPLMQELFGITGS
Description: 1) Information of Cell Line
DPX2 (HepG2 cells stably transfected with PXR and luciferase reporter) cells were purchased from Puracyp Inc (Carlsbad, CA).
2) Experimental Procedures a) Reagents and Consumables
The DPX2 cells were cultured in the growth medium containing 1000 fetal bovine serum. The DPX2 cells in a T-75 flask were cultured in the […] incubator at 37° C. with 950% relative humidity, and digested when the cells grew to cover 80-90% of the bottom of the flask.
The surface layer of the T-75 cultured cells was washed with 10 mL of PBS; PBS was pipetted; 3-5 mL of tryp sin was added; the cells were digested at 37° C. for 5 minutes or until the cells were digested to be suspended; and excessive medium containing fetal bovine serum was added to stop trypsinization. The cell suspension was transferred to a conical-bottomed centrifuge tube and centrifuged at 150 g rpm for 5 minutes at room temperature; the supernatant was carefully pipetted; and the cells were resuspended with the treatment medium, with the concentration adjusted to 3.2×10^5 cells/mL (incubation time: 24 hours, plate seeding density: […]). 25 μL of the cell suspension was added to each well of the 384-well cell culture plate.
The cell culture plate was placed and cultured for 24 h in the […] incubator with 9500 humidity at 37° C. c) Formulation of Compound
The stock solution of each of 1000× test compound, the positive control (rifampicin), and the negative control (propranolol) was prepared with DMSO. The final concentrations of the positive control (rifampicin) were 1 μM and 10 μM, and the final concentration of the negative control (propranolol) was 10 μM. The final concentrations of the test compound were 10 μM, 1 μM, 0.1 μM, or EC50 (30 μM, 10 μM, 3 μM, 1 μM, 0.3 μM, 0.1 μM). The final concentration of DMSO was 0.10. The cell culture plate was taken out from the incubator, and 25 nL of the stock solution of the positive control, negative control or test compound was directly added with Echo, each with three parallel concentrations. The cell culture plate was placed in the incubator and continued to be incubated for 24 h. Before starting the assay with the substrate, the cell morphology and the monolayer integrity were checked to ensure that the monolayer was of acceptable research quality. […]
d) Quantitative Detection with PXR Activation
After 24 hours of dosing, the culture could be quantitatively detected with PXR activation. The CellTiter-Fluor™ Cell Viability Assay Kit and One-Glo Luciferase reagent were equilibrated to room temperature. The GF-AFC substrate (10 μL) was added to the assay buffer (10 ml) to develop a 2× reagent, which was then diluted into a 1× reagent with 10 ml of PBS. The ONE-Glo Luciferase substrate was added to the ONE-Glo Luciferase assay buffer. The culture plate was taken out from the incubator; the medium was discarded; 1× of CellTiter-Fluor™ reagent was poured into the loading slot; 25 μL of reagent were added per well to the culture plate with a pipetting workstation; and the culture plate was then incubated in the incubator for 30 minutes. The cell culture plate was taken out from the incubator, and cooled slightly to room temperature; and the fluorescence value was determined with a fully automatic quantitative microplate reader, with the excitation light of 400 nm and the emission light of 505 nm. The ONE-Glo reagent was poured into the loading slot, with 25 μL per well, and the resulting mixture was gently mixed in the plate, and incubated at room temperature for 5 minutes to determine the luminescence value.

Row | Compound | IC50 (HCC1806) [nM] | IC50 (HCC1806; Homo sapiens, HCC1806, 168 h) [nM] | PXR Activation @30 uM (Fold) (PXR) | PXR Activation @30 uM (% Ctrl) (PXR)
1 | CC(C)C(=O)N1CCN(c2cc(S(=O)(=O)NC3(C#N)CC3)cn3c(-c4nnc(C(F)(F)F)s4)ncc23)CC1 [Example 167, N-(1-cyanocyclopropyl)-8-(4-isobutyrylpiperazin-1-yl)-3-(5-(trifluoromethyl)-1,3,4-thiadiazol-2-yl)imidazo[1,5-a]pyridine-6-sulfonamide] | 290 | < 500 | 5.0 | 34
2 | CC(C)C(=O)N1CCN(c2cc(S(=O)(=O)NC3(C#N)CC3)cn3c(-c4nnc(C(F)F)s4)ncc23)CC1 [Example 32, N-(1-cyanocyclopropyl)-3-(5-(difluoromethyl)-1,3,4-thiadiazol-2-yl)-8-(4-isobutyrylpiperazin-1-yl)imidazo[1,5-a]pyridine-6-sulfonamide] |  |  | 2.7 | 19

Reference: patent publication US20260258035A1, “FIVE-MEMBERED AND SIX-MEMBERED NITROGEN-CONTAINING COMPOUND, AND INTERMEDIATE, PREPARATION METHOD AND USE THEREOF” (HANGZHOU SYNRX THERAPEUTICS BIOMEDICAL TECHNOLOGY CO., LTD., priority 2022, published 2026)
